Values joined by “and” are separate entries in the source; they are usually repeats but may differ in a detail not shown here. Equal entries are not always repeated.
Legend:
[1] = target: T1, GAL4 DBD-CfEcR(DEF)/VP16AD-MmRXRE (Choristoneura fumiferana, UniProt O77240); experiment: cell-based
T1 sequence (O77240 1-513): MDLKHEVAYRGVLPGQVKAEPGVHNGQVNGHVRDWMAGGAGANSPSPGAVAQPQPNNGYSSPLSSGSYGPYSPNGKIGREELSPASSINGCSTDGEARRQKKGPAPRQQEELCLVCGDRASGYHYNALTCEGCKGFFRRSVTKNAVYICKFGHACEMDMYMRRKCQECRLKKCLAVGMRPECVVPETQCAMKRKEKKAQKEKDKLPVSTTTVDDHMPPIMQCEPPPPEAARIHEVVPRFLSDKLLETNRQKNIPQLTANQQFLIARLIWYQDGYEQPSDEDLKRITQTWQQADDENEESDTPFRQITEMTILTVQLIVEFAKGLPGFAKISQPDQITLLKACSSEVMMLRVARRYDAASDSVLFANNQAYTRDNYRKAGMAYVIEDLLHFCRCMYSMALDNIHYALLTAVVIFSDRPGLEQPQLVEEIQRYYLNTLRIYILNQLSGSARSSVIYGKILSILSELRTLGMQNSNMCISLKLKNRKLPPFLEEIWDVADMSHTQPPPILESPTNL
Source text: GAL4 DBD-CfEcR(DEF)/VP16AD-MmRXRE: The wild-type D, E, and F domains from spruce budworm Choristoneura fumiferana EcR (“CfEcR-DEF”; SEQ ID NO: 1) were fused to a GAL4 DNA binding domain (“Gal4 DBD1-147”; nucleotides 31 to 471 of SEQ ID NO: 2) and placed under the control of the SV40e promoter of pM vector (PT3119-5, Clontech, Palo Alto, Calif.). The D and E domains from Mus Musculus RXR (“MmRXR-DE”; SEQ ID NO: 10) were fused to the transactivation domain from VP16 (“VP16AD”; SEQ ID NO: 5) and placed under the control of the SV40e promoter of the pVP16 vector (PT3127-5, Clontech, Palo Alto, Calif.).
CHO cells were transienty transfected with transcription cassettes for GAL4 DBD-CfEcR(DEF) and for VP16AD-MmRXRE controlled by SV40e promoters. Stably transfected cells were selected using Hygromycin. Individually isolated CHO cell clones were transiently transfected with a GAL4 RE-luciferase reporter (pMR-Luc, Stratagene, La Jolla, Calif.). The 13B3 clone was selected using Zeocin.
(§1) Cells were trypsinized and diluted to a concentration of 2.5×10^4 cells mL. 100 μL of cell suspension was placed in each well of a 96 well plate and incubated at 37° C. under 5% CO2 for 24 h. Ligand stock solutions were prepared in DMSO and diluted 300 fold for all treatments. Dose response testing consisted of 8 concentrations ranging from 33 μM to 0.01 μM.
(§2) Luciferase reporter gene expression was measured 48 h after cell treatment using Bright-Glo™ Luciferase Assay System from Promega (E2650). Luminescence was detected at room temperature using a Dynex MLX microtiter plate luminometer.
(§3) Fold inductions were calculated from single dose testing by dividing relative light units (RLU) in ligand treated cells by RLU in DMSO treated cells. BC50s were calculated from dose response data using a three-parameter logistic model.

[2] = target: T2, Bombyx mori EcR (VP16 fusion, switch construct CVBE) with 6XEcRE LacZ reporter (Bombyx mori, UniProt P49881); experiment: Z3 assay: β-galactosidase (LacZ) reporter gene fold induction in stably transformed human 293 kidney cells (clone Z3); assay type: cell-based; conditions: single dose 33 μM; ligand treated / DMSO treated cells
T2 construct: expressed in transfected cells; host or cells: Human 293 kidney (HEK-293) cells, retrovirally infected, clone Z3
T2 sequence (P49881 86-606 limits assumed): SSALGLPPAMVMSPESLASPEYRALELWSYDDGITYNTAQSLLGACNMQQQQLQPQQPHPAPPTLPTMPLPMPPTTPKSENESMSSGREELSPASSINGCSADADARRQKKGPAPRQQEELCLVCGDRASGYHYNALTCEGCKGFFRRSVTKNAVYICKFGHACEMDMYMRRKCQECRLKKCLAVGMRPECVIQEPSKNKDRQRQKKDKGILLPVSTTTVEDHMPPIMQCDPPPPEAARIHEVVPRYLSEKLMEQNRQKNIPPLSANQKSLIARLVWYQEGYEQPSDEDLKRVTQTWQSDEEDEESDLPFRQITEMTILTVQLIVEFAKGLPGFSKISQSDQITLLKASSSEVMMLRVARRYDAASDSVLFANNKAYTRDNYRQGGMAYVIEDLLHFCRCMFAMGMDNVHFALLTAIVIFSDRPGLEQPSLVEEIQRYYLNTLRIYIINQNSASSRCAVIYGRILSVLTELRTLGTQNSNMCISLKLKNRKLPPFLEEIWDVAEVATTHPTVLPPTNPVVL
T2 sequence (P19793 1-462 partner): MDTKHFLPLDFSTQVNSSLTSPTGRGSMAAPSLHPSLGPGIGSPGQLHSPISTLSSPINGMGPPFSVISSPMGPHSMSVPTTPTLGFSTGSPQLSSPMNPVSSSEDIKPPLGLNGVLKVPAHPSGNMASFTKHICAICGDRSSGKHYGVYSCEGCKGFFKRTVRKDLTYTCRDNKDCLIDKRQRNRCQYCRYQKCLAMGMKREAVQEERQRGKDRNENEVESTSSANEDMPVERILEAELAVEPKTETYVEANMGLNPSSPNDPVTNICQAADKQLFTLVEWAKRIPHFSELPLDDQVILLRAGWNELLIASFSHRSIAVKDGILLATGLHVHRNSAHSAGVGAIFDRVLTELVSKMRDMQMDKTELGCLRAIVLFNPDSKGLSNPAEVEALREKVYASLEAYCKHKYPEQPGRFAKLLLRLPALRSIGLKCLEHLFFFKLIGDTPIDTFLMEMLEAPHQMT
Source text: Dr. F. Gage provided a population of stably transformed cells containing CVBE and 6XEcRE as described in Suhr, S. T., Gil, E. B., Senut M. C., Gage, F. H. (1998) Proc. Natl. Acad. Sci. USA 95, 7999-804. Human 293 kidney cells, also referred to as HEK-293 cells, were sequentially infected with retroviral vectors encoding first the switch construct CVBE, and subsequently the reporter construct 6XEcRE Lac Z. The switch construct contained the coding sequence for amino acids 26-546 from Bombyx mori EcR (BE) (Iatrou) inserted in frame and downstream of the VP16 transactivation domain (VBE). A synthetic ATG start codon was placed under the control of cytomegalovirus (CVBE) immediate early promoter and flanked by long terminal repeats (LTR). The reporter construct contained six copies of the ecdysone response element (EcRE) binding site placed upstream of LacZ and flanked on both sides with LTR sequences (6XEcRE).
Dilution cloning was used to isolate individual clones. Clones were selected using 450 ug/mL G418 and 100 ng/mL puromycin. Individual clones were evaluated based on their response in the presence and absence of test ligands. Clone Z3 was selected for screening and SAR purposes.
Human 293 kidney cells stably transformed with CVBE and 6XEcRE lack were maintained in Minimum Essential Medium (Mediates, 10-010-CV) containing 10% FBS (Life Technologies, 26140-087), […] G418 (Mediates, 30-234-CR), and […] (Sigma, P-7255), at 37° C. in an atmosphere containing 5% CO2 and were subculture when they reached 75% confluence.
Z3 cells were seeded into 96-well tissue culture plates at a concentration of 2.5×10^3 cells per well and incubated at 37° C. in 5% CO2 for twenty-four hours. Stock solutions of ligands were prepared in DMSO. Ligand stock solutions were diluted 100 fold in media and 50 μL of this diluted ligand solution (33 μM) was added to cells. The final concentration of DMSO was maintained at […] in both controls and treatments.
Reporter gene expression was evaluated 48 hours after treatment of cells, β-galactosidase activity was measured using Gal Screen™ bioluminescent reporter gene assay system from Tropix (GSY1000).
Flanking both constructs are long terminal repeats, G418 and puromycin are selectable markers, CMV is the cytomegalovirus promoter, VBE is coding sequence for amino acids 26-546 from Bombyx mori EcR inserted downstream of the VP16 transactivation domain, 6×EcRE is six copies of the ecdysone response element, lacZ encodes for the reporter enzyme β-galactosidase. Suhr, S. T., Gil, E. B., Senut M. C., Gage, F. H. (1998) Proc. Natl. Acad. Sci. USA 95, 7999-804. Swevers, L., Drevet, J. R., Lunke, M. D., Iatrou, K. (1995) Insect Biochem. Mol. Biol. 25, 857-866.

[3] = target: T3, GAL4 DBD (1-147)-CfEcR(DEF)/VP16AD-βRXREF-LmUSPEF (Choristoneura fumiferana, UniProt O77240); experiment: 27-63 assay: luciferase reporter gene expression in stable CHO cell clone 27-63; conditions: for EC50: 27-63 EC50 (μM), CHO clone 27-63, luciferase reporter 48 h after treatment, dose response 8 concentrations 33 μM to 0.01 μM, three-parameter logistic model; for 27-63 Rel Max FI: maximum fold induction at any concentration relative to maximum fold induction of GS™-E ligand, CHO clone 27-63
T3 sequence (O77240 191-513): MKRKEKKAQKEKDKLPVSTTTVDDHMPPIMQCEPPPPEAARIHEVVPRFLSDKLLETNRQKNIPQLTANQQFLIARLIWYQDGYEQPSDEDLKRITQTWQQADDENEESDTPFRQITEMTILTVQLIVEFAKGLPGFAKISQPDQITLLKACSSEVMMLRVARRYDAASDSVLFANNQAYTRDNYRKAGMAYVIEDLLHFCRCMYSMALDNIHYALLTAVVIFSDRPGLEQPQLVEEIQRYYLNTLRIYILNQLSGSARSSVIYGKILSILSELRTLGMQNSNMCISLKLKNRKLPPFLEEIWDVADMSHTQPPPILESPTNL
T3 sequence (P28702 296-455 partner limits assumed): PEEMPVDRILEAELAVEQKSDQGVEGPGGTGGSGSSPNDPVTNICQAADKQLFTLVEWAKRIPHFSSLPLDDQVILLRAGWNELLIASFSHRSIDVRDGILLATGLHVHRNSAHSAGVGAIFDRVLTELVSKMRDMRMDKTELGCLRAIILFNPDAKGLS
Source text: GAL4 DBD (1-147)-CfEcR(DEF)/VP16AD-βRXREF-LmUSPEF: The wild-type D, E, and F domains from spruce budworm Choristoneura fumiferana EcR (“CfEcR-DEF”; SEQ ID NO: 1) were fused to a GAL4 DNA binding domain (“Gal4 DBD1-147”; nucleotides 31 to 471 of SEQ ID NO: 2) and placed under the control of a phosphoglycerate kinase promoter (“PGK”; SEQ ID NO: 3). Helices 1 through 8 of the EF domains from Homo sapiens RXRβ and helices 9 through 12 of the EF domains of Locusta migratoria Ultraspiracle Protein (“HsRXRβ-EF-LmUSP-EF”; SEQ ID NO: 4) were fused to the transactivation domain from VP16 (“VP16AD”; SEQ ID NO: 5) and placed under the control of an elongation factor-1α promoter (“EF-1α”; SEQ ID NO: 6). Five consensus GAL4 response element binding sites (“5XGAL4RE”; comprising 5 copies of a GAL4RE comprising SEQ ID NO: 7) were fused to a synthetic TATA minimal promoter (SEQ ID NO: 8) and placed upstream of the luciferase reporter gene (SEQ ID NO: 9).
CHO cells were transiently transfected with transcription cassettes for GAL4 DBD (1-147) CfEcR(DEF) and for VP16AD βRXREF-LmUSPEF controlled by ubiquitously active cellular promoters (PGK and EF-1α, respectively) on a single plasmid. Stably transfected cells were selected by Zeocin resistance. Individually isolated CHO cell clones were transiently transfected with a GAL4 RE-luciferase reporter (pFR Luc). 27-63 clone was selected using Hygromycin.
as §1, §2, §3

Structure (SMILES) | Fold Induction Average, 13B3 Assay (33 μM) [1] | Fold Induction Average, Z3 Assay (33 μM) [2] | EC50 [3] | 27-63 Rel Max FI [3]
COc1cccc(C(=O)NC2(C(=O)c3cc(C)cc(C)c3)CCN(C(=O)OC(C)(C)C)CC2)c1C [Example 110] | 2 | 1 | – | –
COc1cccc(C(=O)NC(C)(C(=O)c2ccc3c(c2)OCO3)C(C)C)c1C (stereo not shown) [Example 111] | 0 | 1 | – | –
COc1cccc(C(=O)NC(C)(C(C)=O)C(C)C)c1C (stereo not shown) [Example 112] | 2 | 1 | – | –
COc1cccc(C(=O)NC(C(=O)c2cccc(C)c2)C(C)(C)C)c1C (stereo not shown) [Example 113] | 1 | 4 | – | –
COc1cccc(C(=O)C(NC(=O)c2cccc(OC)c2C)C(C)(C)C)c1 (stereo not shown) [Example 114] | 2 | 3 | – | –
COc1cccc(C(=O)NC(C(=O)c2cc(C)cc(C)c2)C(C)(C)C)c1C (stereo not shown) [Example 115] | 1 | 15 | – | –
COc1ccccc1C(=O)NC(C)(C)C(=O)c1cccc(C)c1 [Example 116] | 4 | 1 | – | –
COc1ccc(C(=O)C(C)(CC(C)C)NC(=O)c2cccc(OC)c2C)cc1 (stereo not shown) [Example 118] | 0 | 1 | – | –
COc1ccccc1C(=O)NC(C)(C)C(=O)c1cc(C)cc(C)c1 [Example 119] | 0 | 1 | – | –
Cc1cc(C)cc(C(=O)C2(NS(=O)(=O)c3ccc4c(c3)COCO4)CCCCC2)c1 [Example 179] | – | – | 6.53 µM | 0.28
Cc1ccc(S(=O)(=O)NC2(C(=O)c3cc(C)cc(C)c3)CCCC2)cc1 [Example 180] | – | – | 1.24 µM and 1.8 µM | 0.86 and 1.00
